Measurements published in patent US20070154393A1, “Bioassay for volatile low molecular weight insecticides and methods of use” (priority 2005, published 2007).
Read-outs that look alike come from different tables or passages of the source.

Legend:
[1] = tested on: metabolically resistant Hikone-R strain of Drosophila; format: in vivo; details: Table 3, Hikone-R, 24 hr
Experimental: (§1) All experimental materials were purchased from Sigma-Aldrich-Fluka (Milwaukee, Wis.) and were of 99% purity or greater. […] All volatile insecticide stocks were prepared at 100 μg/μl in analytical grade acetone. Rather than weigh the highly volatile liquid insecticides (i.e., all compounds except benzothiophene), weight was determined based on the density-volume relationship of each compound. Four serial dilutions were prepared and tested for each insecticide as described previously (Scharf et al., 2006). The insecticide synergists PBO (piperonyl butoxide) and DEF (SSS-tributyl-phosphoro-trithioate) were obtained from Fluka Chemical Co. (Basel, Switzerland) and Mobay Chemical Co. (Kansas City, Mo.). Both synergists were >95% purity. Synergist stocks were prepared at 100 μg/ml in analytical grade acetone.
(§2) Volatility bioassays were conducted exactly as described in a previous report (Scharf et al., 2006). Briefly, bioassays took place in 0.5-l glass jars with metal lids. Mixed-sex flies were isolated from lab colonies and placed in 4-ml dram vials in groups of ten, along with a dried piece of laboratory diet. The dram vials were capped with open-top septum caps that were covered with fine mesh (held in place by non-toxic glue). For bioassays, the assembled dram vials were placed into the 0.5-l jars along with a folded filter paper “tent” (Whatman #1; Vineland, N.J.). The filter paper was treated with either an insecticide dilution or acetone, the jar was sealed with the metal lid, and the bioassay proceeded for 24-hr at room temperature. Mortality was scored based on a complete lack of movement by the flies. Four concentrations plus an acetone control were tested for all insecticides. Between five and ten replicates were performed for each concentration range on each strain-insecticide combination. Synergist bioassays were performed with a slight modification. Synergist stocks were applied to dram vials at 100 μl per vial to provide assay concentrations of 10 μg per vial. […] After treatment, vials were held at an angle in a fume hood and rotated ¼-turn each minute until the acetone evaporated. Flies and diet were added as above and held for 1-hr. Assays were initiated, run, and scored as above.
(§3) Probit analysis was performed using PROC PROBIT in the SAS software package (SAS Institute; Cary, N.C.). If control mortality ever exceeded 10% in a given replicate, that replicate was discarded. Toxicity and synergist ratios at LC50 were compared statistically using the calculation described by Robertson and Preisler (1992). Using this procedure, ratios with 95% confidence intervals were calculated using a spreadsheet-based program. With this calculation, if confidence intervals include 1.0 then ratios are considered non-significant (p>0.05; Robertson and Preisler, 1992).

[2] = tested on: insecticide-susceptible Canton-S strain of Drosophila; format: in vivo; details: for Slope ± Std. Error (probit mortality line): Table 3, Canton-S, 24 hr
Experimental: as §1, §2, §3

[3] = tested on: insecticide-susceptible Drosophila melanogaster (Canton-S strain); format: in vivo; details: for Slope ± Std. Error (best-fit probit mortality line): Table 1, 24 hr exposure, probit analysis; for Slope ± Std. Error (best-fit probit mortality line) / Slope ± Std. Error (probit mortality line): Canton-S; for Slope ± Std. Error (probit mortality line): 24 hr
Experimental: The insecticide-susceptible Canton-S strain of Drosophila was obtained from the Bloomington Drosophila stock center (Indiana University, Bloomington, Ind.), and used exclusively in all studies. Flies were reared in 100-ml vials capped with acetate plugs (Fisher Scientific; Suwannee, Ga.) on a JAZZ-MIX diet (Fisher) prepared with a 2:1 ratio of water to apple juice. Flies were reared on a 12:12 photocycle at 24° C. and ambient relative humidity. Mixed-sex adults, less than 1-wk old, were used in bioassays.
Flies were briefly anesthetized in rearing vials with a pulse of CO2 and transferred to a CO2 flowbed (Genesee Scientific; San Diego, Calif.). Using a camel hair brush and a 5×5 cm sheet of rice paper, ten flies were placed into 7.0 ml dram vials. Prior to adding flies, each vial received a 0.5 cm^3 block of rearing diet that had been sufficiently dried on a paper towel to remove excessive moisture. The vials were then capped with open-top septum caps (Fisher) that were covered with fine mesh. The mesh was applied to the septum caps in advance using hot glue; it prevented fly escape but readily permitted gas exchange. The flies were allowed 1-hr to recover from the CO2 anesthesia. After one hour, single vials with flies were placed into 0.5 L glass jars, along with a filter paper tent (see FIG. 1). In a fume hood, filter paper tents were treated with insecticide dilutions or acetone for controls. The jars were then rapidly closed tightly with a metal lid. After 24 hours of exposure, mortality was scored with the aid of a magnifying glass.
All test compounds and solvents were >99% purity, and were purchased from Sigma-Aldrich Chemical (Milwaukee, Wis.). See Table 1 for a listing of the test compounds and their structures. Insecticide stock solutions were prepared at a standard concentration of 100 μg/μl in analytical grade acetone. For liquid insecticidal compounds, density in mg/μl was used to calculate weight on a per-volume basis. Stock solutions were held at −20° C. in sealed amber vials. In bioassay jars, filter paper tents were treated with stock volumes ranging from 2 to 20 μl, depending on the inherent toxicity of the test compound. These volumes of insecticide stock provided test concentrations of 200 to 2000 μg insecticide per replicate jar. A range of 4-5 concentrations plus a control were tested for each insecticide, and each range was repeated five times over at least three days. Controls received a volume of acetone identical to the highest insecticide volume that was tested (i.e., 10 μl for menthofuran; 20 μl for all other insecticides). Between uses, bioassay jars and lids were washed in a dishwasher, then baked 12-16 hr at 90° C. in a drying oven.
Probit and regression analyses were performed using the PROC PROBIT and PROC REG procedures, respectively. […] If control mortality ever exceeded 10% in a given replicate, that replicate was discarded.
(§4) Four Drosophila strains were used, all obtained from the Bloomington Drosophila Stock Center (Indiana University; Bloomington, Ind.). The Canton-S strain was used as the insecticide-susceptible standard. The Hikone-R strain is metabolically-resistant with elevated cytochrome P450 levels (Waters et al., 1984; Sundseth et al., 1989; Le Goff et al., 2003; Festucci-Buselli et al., 2005). Hikone-R is resistant to a number of insecticides, including malathion, DDT and neonicotinoids (Sundseth et al., 1989; Daborn et al., 2001). Two resistant neurological-mutant strains were also tested. […] Flies were reared in 100-ml vials capped with acetate plugs (Fisher Scientific; Suwanee, Ga.) on a commercial diet (JAZZ-MIX; Fisher Scientific). Flies were reared on a 12:12 photocycle at 24° C. and 60% relative humidity. Mixed-sex adults, less than 1-wk old, were used in bioassays.

[4] = tested on: Rd1 (Rdl-R) strain of Drosophila (GABA-gated chloride channel point mutation); format: in vivo, Drosophila melanogaster; details: Table 2; Rdl-R, 24 hr
Text: as §4, §1, §2, §3

[5] = Table 2, data taken from Scharf et al. (2006)

Substance | Slope ± Std. Error (probit mortality line) ([1]; +DEF 10 μg per bioassay vial) | Slope ± Std. Error (probit mortality line) ([1]; +PBO 10 μg per bioassay vial) | Slope ± Std. Error (probit mortality line) ([2]; +DEF 10 μg per bioassay vial) | Slope ± Std. Error (probit mortality line) ([2]; +PBO 10 μg per bioassay vial) | DEF synergism ratio (LC50 with synergist÷LC50 without) ([2]; esterase inhibitor DEF, reduction in toxicity, strain not given, fits Canton-S of Table 3) | Slope ± Std. Error (best-fit probit mortality line) [3] | Slope ± Std. Error (probit mortality line) [3, 5] | Slope ± Std. Error (probit mortality line) ([3]; Table 3, no synergist) | LC50 (95% CL) ([3]; in vivo) | Slope ± Std. Error (probit mortality line) [4]
ethyl formate | 14.17 ± 1.80 | 5.17 ± 1.28 | 1.73 ± 1.35 | 4.74 ± 1.44 | > 12 fold | 5.18 ± 1.07 | 5.18 ± 1.07 | 5.18 ± 1.07 | 1656.0 (1486.0 − 1917.0) μg/jar | 6.38 ± 1.91
methyl formate | 1.91 ± 0.60 | 51.10 | 3.98 ± 1.52 | 49.50 |  | 3.27 ± 0.95 | 3.27 ± 0.95 | 3.27 ± 0.95 |  | 9.41 ± 2.14
